test system: SORHA (johnsongrass (seedling)); test: Pre-emergence herbicidal activity, warm season; format: in vivo, Sorghum halepense; settings: GR80 = lowest tested rate (300, 100, 30, 10 g/ha) with 80% or greater inhibition; approx. 14 days after treating; 30/21° C.
Procedure, shortened: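 Seeds sown in sterilised fertilised topsoil received surface-applied compound in 50:50 acetone/water, typically at 300, 100, 30 and 10 g/ha, then greenhouse-grown at 30/21° C (warm-season species) or 18/13° C (cool-season species). Percent inhibition versus untreated plants was scored at about 14 days, giving GR80; an asterisk marks activity short of 80% at the top rate.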

| Structure (SMILES) | Pre-emergence activity (GR80) SORHA |
| --- | --- |
| C=C(C)CC(F)(F)S(=O)(=O)c1ncn(C(=O)N(CC)CC)n1 [Example 18] | 100 g/ha |
| C=C(Br)CC(F)(F)S(=O)(=O)c1ncn(C(=O)N(CC)CC)n1 [Example 19] | 100 g/ha |

test system: ALOMY (blackgrass); test: Pre-emergence herbicidal activity, cool season; format: in vivo, Alopecurus myosuroides; settings: GR80 = lowest tested rate (300, 100, 30, 10 g/ha) with 80% or greater inhibition; approx. 14 days after treating; 18/13° C.
Procedure, shortened: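 Pre-emergence soil-surface spray; rates 300/100/30/10 g/ha; acetone:water 50:50 diluent. Warm-season species (PANMI, DIGSA) grown at 30/21 °C, cool-season species (ALOMY, POLCO) at 18/13 °C. Inhibition scored ~14 d after treatment versus untreated controls → GR80.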

| Structure (SMILES) | Pre-emergence activity (GR80) ALOMY |
| --- | --- |
| C=C(C)CC(F)(F)S(=O)(=O)c1ncn(C(=O)N(CC)CC)n1 [Example 18] | 300 g/ha |
| C=C(Br)CC(F)(F)S(=O)(=O)c1ncn(C(=O)N(CC)CC)n1 [Example 19] | 100 g/ha |

test system: AVEFA (wild oat); test: Pre-plant incorporated (PPI) herbicidal activity, cool season; format: in vivo, Avena fatua; settings: Avena fatua; weed, PPI application, 10 g/ha; read-out: Percent inhibition AVEFA
Description: In another set of tests, the pre-plant incorporated (PPI) activity of compounds of this invention was evaluated on the same species as for the pre-emergence tests described above. In the PPI tests the following procedure, designed to simulate PPI application, was used.
(§1) A pre-prepared topsoil mixture (described above) was placed in a pot and compacted to a depth of 1.0 to 1.25 cm from the top of the pot. Seeds of each of several monocotyledonous and dicotyledonous annual plant species were placed on top of the soil. A sufficient quantity of soil to cover the seeds and level fill the pot was weighed into an open container. A known amount of the test compound was dissolved or suspended in an organic solvent and applied by spraying to this cover soil. The cover soil was thoroughly mixed to distribute the test compound throughout the cover soil, and was then applied as a cover layer over the seeds. Untreated soil was used as a cover layer for control pots. After treatment the plants were placed in a greenhouse where they received 0.64 cm of overhead irrigation. All subsequent watering consisted of a light overhead mist and/or subirrigation as needed for germination and growth. Tables 9 and 10 below relate to warm season plant species which were placed after pre-emergence treatment in a greenhouse with a 30/21° C. day/night temperature regime. Tables 11 and 12 below relates to cool season plant species placed after pre-emergence treatment in a greenhouse or growth chamber with an 18/13° C. day/night temperature regime. Only the compounds of Examples 1, 6, 8, 11, 13 and 15-20 were included in PPI tests.
(§2) Approximately 14 days after planting and treating, the plants were observed and herbicidal efficacy recorded as percent inhibition by comparison with untreated plants.

| Structure (SMILES) | inhibition at 10 g/ha |
| --- | --- |
| C=C(C)CC(F)(F)S(=O)(=O)c1ncn(C(=O)N(CC)CC)n1 [Example 18] | 0% |
| C=C(Br)CC(F)(F)S(=O)(=O)c1ncn(C(=O)N(CC)CC)n1 [Example 19] | 0% |

same assay, conditions: Avena fatua; weed, PPI application, 30 g/ha; read-out: Percent inhibition AVEFA

| Structure (SMILES) | inhibition at 30 g/ha |
| --- | --- |
| C=C(C)CC(F)(F)S(=O)(=O)c1ncn(C(=O)N(CC)CC)n1 [Example 18] | 0% |
| C=C(Br)CC(F)(F)S(=O)(=O)c1ncn(C(=O)N(CC)CC)n1 [Example 19] | 0% |

same assay, conditions: Avena fatua; weed, PPI application, 100 g/ha; read-out: Percent inhibition AVEFA

| Structure (SMILES) | inhibition at 100 g/ha |
| --- | --- |
| C=C(C)CC(F)(F)S(=O)(=O)c1ncn(C(=O)N(CC)CC)n1 [Example 18] | 10% |
| C=C(Br)CC(F)(F)S(=O)(=O)c1ncn(C(=O)N(CC)CC)n1 [Example 19] | 30% |

same assay, conditions: Avena fatua; weed, PPI application, 300 g/ha; read-out: Percent inhibition AVEFA

| Structure (SMILES) | inhibition at 300 g/ha |
| --- | --- |
| C=C(C)CC(F)(F)S(=O)(=O)c1ncn(C(=O)N(CC)CC)n1 [Example 18] | 50% |
| C=C(Br)CC(F)(F)S(=O)(=O)c1ncn(C(=O)N(CC)CC)n1 [Example 19] | 70% |

same assay, conditions: Avena fatua; weed, PPI application, 900 g/ha; read-out: Percent inhibition AVEFA

| Structure (SMILES) | inhibition at 900 g/ha |
| --- | --- |
| C=C(C)CC(F)(F)S(=O)(=O)c1ncn(C(=O)N(CC)CC)n1 [Example 18] | 99% |
| C=C(Br)CC(F)(F)S(=O)(=O)c1ncn(C(=O)N(CC)CC)n1 [Example 19] | 60% |

same assay, conditions: pre-plant incorporated; lowest tested rate with 80% or greater inhibition; about 14 days

| Structure (SMILES) | PPI activity GR80, AVEFA |
| --- | --- |
| C=C(C)CC(F)(F)S(=O)(=O)c1ncn(C(=O)N(CC)CC)n1 [Example 18] | 300 g/ha |
| C=C(Br)CC(F)(F)S(=O)(=O)c1ncn(C(=O)N(CC)CC)n1 [Example 19] | 300 g/ha |

test system: LOLMG (annual ryegrass); test: Post-emergence herbicidal activity, cool season; format: in vivo, Lolium multiflorum; settings: abraded plants sprayed at 300, 100, 30 and 10 g/ha; about 14 days after treatment
Procedure, shortened: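 GR80 values derive from percent growth inhibition scored approximately 14 days post-spray against abraded, unsprayed controls under an 18/13 °C regime. Foliar application to sandblast-abraded plants used rates of 300, 100, 30 and 10 g/ha in 50:50 acetone/water at 3,100 l/ha.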

| Structure (SMILES) | Post-emergence activity GR80, LOLMG |
| --- | --- |
| C=C(C)CC(F)(F)S(=O)(=O)c1ncn(C(=O)N(CC)CC)n1 [Example 18] | [empty] |
| C=C(Br)CC(F)(F)S(=O)(=O)c1ncn(C(=O)N(CC)CC)n1 [Example 19] | [empty] |

test system: soybean (GLYMX); test: Selectivity test, PPI, warm season crop; format: in vivo, Glycine max; settings: Glycine max; PPI application, 10 g/ha; read-out: Percent inhibition GLYMX
Description: as §1, §2
(§3) Additional pre-emergence and PPI tests were conducted by the procedures described above, on warm and cool season weed species in the presence of crop species, to assess herbicidal selectivity. Crop species included in warm season tests were corn (Zea mays, ZEAMX), rice (Oryza sativa, ORYSA) and soybean (Glycine max, GLYMX). Crop species included in cool season tests were wheat (Triticum aestivum, TRZAW), barley (Hordeunm vulgare, HORVX) and oilseed rape (Brassica napus, BRSNS).
(§4) Tables 15 and 16 relate to pre-emergence and PPI tests respectively on warm season species. Table 17 relates to pre-emergence tests on cool season species.

| Structure (SMILES) | inhibition at 10 g/ha |
| --- | --- |
| C=C(C)CC(F)(F)S(=O)(=O)c1ncn(C(=O)N(CC)CC)n1 [Example 18] | 0% |
| C=C(Br)CC(F)(F)S(=O)(=O)c1ncn(C(=O)N(CC)CC)n1 [Example 19] | 0% |

same assay, conditions: Glycine max; PPI application, 30 g/ha; read-out: Percent inhibition GLYMX

| Structure (SMILES) | inhibition at 30 g/ha |
| --- | --- |
| C=C(C)CC(F)(F)S(=O)(=O)c1ncn(C(=O)N(CC)CC)n1 [Example 18] | 0% |
| C=C(Br)CC(F)(F)S(=O)(=O)c1ncn(C(=O)N(CC)CC)n1 [Example 19] | 0% |

same assay, conditions: Glycine max; PPI application, 100 g/ha; read-out: Percent inhibition GLYMX

| Structure (SMILES) | inhibition at 100 g/ha |
| --- | --- |
| C=C(C)CC(F)(F)S(=O)(=O)c1ncn(C(=O)N(CC)CC)n1 [Example 18] | 0% |
| C=C(Br)CC(F)(F)S(=O)(=O)c1ncn(C(=O)N(CC)CC)n1 [Example 19] | 0% |

same assay, conditions: Glycine max; PPI application, 300 g/ha; read-out: Percent inhibition GLYMX

| Structure (SMILES) | inhibition at 300 g/ha |
| --- | --- |
| C=C(C)CC(F)(F)S(=O)(=O)c1ncn(C(=O)N(CC)CC)n1 [Example 18] | 0% |
| C=C(Br)CC(F)(F)S(=O)(=O)c1ncn(C(=O)N(CC)CC)n1 [Example 19] | 0% |

same assay, conditions: Glycine max; PPI application, 900 g/ha; read-out: Percent inhibition GLYMX

| Structure (SMILES) | inhibition at 900 g/ha |
| --- | --- |
| C=C(C)CC(F)(F)S(=O)(=O)c1ncn(C(=O)N(CC)CC)n1 [Example 18] | 50% |
| C=C(Br)CC(F)(F)S(=O)(=O)c1ncn(C(=O)N(CC)CC)n1 [Example 19] | 20% |

test system: barley (HORVX); test: Selectivity test, PPI, cool season crop; format: in vivo, Hordeunm vulgare; settings: Hordeum vulgare, PPI application, 10 g/ha, read-out: Percent inhibition HORVX
Description: as §1, §2, §3, §4

| Structure (SMILES) | inhibition at 10 g/ha |
| --- | --- |
| C=C(C)CC(F)(F)S(=O)(=O)c1ncn(C(=O)N(CC)CC)n1 [Example 18] | 0% |
| C=C(Br)CC(F)(F)S(=O)(=O)c1ncn(C(=O)N(CC)CC)n1 [Example 19] | 0% |

same assay, conditions: Hordeum vulgare, PPI application, 30 g/ha, read-out: Percent inhibition HORVX

| Structure (SMILES) | inhibition at 30 g/ha |
| --- | --- |
| C=C(C)CC(F)(F)S(=O)(=O)c1ncn(C(=O)N(CC)CC)n1 [Example 18] | 0% |
| C=C(Br)CC(F)(F)S(=O)(=O)c1ncn(C(=O)N(CC)CC)n1 [Example 19] | 0% |

same assay, conditions: Hordeum vulgare, PPI application, 100 g/ha, read-out: Percent inhibition HORVX

| Structure (SMILES) | inhibition at 100 g/ha |
| --- | --- |
| C=C(C)CC(F)(F)S(=O)(=O)c1ncn(C(=O)N(CC)CC)n1 [Example 18] | 0% |
| C=C(Br)CC(F)(F)S(=O)(=O)c1ncn(C(=O)N(CC)CC)n1 [Example 19] | 20% |

same assay, conditions: Hordeum vulgare, PPI application, 300 g/ha, read-out: Percent inhibition HORVX

| Structure (SMILES) | inhibition at 300 g/ha |
| --- | --- |
| C=C(C)CC(F)(F)S(=O)(=O)c1ncn(C(=O)N(CC)CC)n1 [Example 18] | 10% |
| C=C(Br)CC(F)(F)S(=O)(=O)c1ncn(C(=O)N(CC)CC)n1 [Example 19] | 20% |

same assay, conditions: Hordeum vulgare, PPI application, 900 g/ha, read-out: Percent inhibition HORVX

| Structure (SMILES) | inhibition at 900 g/ha |
| --- | --- |
| C=C(C)CC(F)(F)S(=O)(=O)c1ncn(C(=O)N(CC)CC)n1 [Example 18] | 60% |
| C=C(Br)CC(F)(F)S(=O)(=O)c1ncn(C(=O)N(CC)CC)n1 [Example 19] | 45% |

Reference: patent US6461997B1, “Triazole sulfones having herbicidal activity” (Monsanto Technology LLC, priority 1999, dated 2002)
